assay: HPLC logP determination; format: physicochemical; details: stated in the preparation examples

Row | Structure (SMILES) | chromatographic logP
1 | O=CNc1cccc(C(=O)Nc2ccc(Oc3ncnc(Oc4ccccc4)c3F)cc2)c1O [Example 1, N-[4-(5-fluoro-6-phenoxy-pyrimidin-4-yloxy)-phenyl]-3-formyl-amino-2-hydroxy-benzamide] | 3.31
2 | O=C(Nc1ccc(Oc2ncnc(Oc3ccccc3)c2F)cc1)c1cccc([N+](=O)[O-])c1OCc1ccccc1 [Example V-1, 2-benzyloxy-N-[4-(5-fluoro-6-phenoxy-pyrimidin-4-yloxy)-phenyl]-3-nitro-benzamide] | 4.56
3 | Nc1ccc(Oc2cc(Oc3ccccc3Cl)ncn2)cc1 [VII-a-1, 4-(4-aminophenoxy)-6-(2-chlorophenoxy)-pyrimidine] | 1.96
4 | Nc1ccc(Oc2cc(Cl)ncn2)cc1 [XI-1, 4-(4-aminophenoxy)-6-chloro-pyrimidine] | 0.65
